Data reported in patent US10568925B2, “Extracts of Curcuma amada and uses thereof” (DHARMA BIOMEDICAL, LLC, priority 2015, dated 2020).
Read-outs that look alike come from different tables or passages of the source.

Tests used:
[1] = system: U-87MG human glioblastoma cell line; assay: MTT cytotoxicity in U-87MG glioblastoma cells; assay type: cell-based; conditions: 72 hours
Description: Human glioblastoma cell line (U-87MG) was purchased from American Type Culture Collection, Manassas, Va. and the cells were grown in RPMI medium supplemented with 10% fetal bovine serum (FBS) and antibiotics in a humidified 5% CO2 incubator maintained at 37° C. The normal mouse embryonic hypothalamus cell line (mHypoE-N1) was purchased from CELLutions Biosystems, Inc, Burlington, Ontario, Canada and was grown in DMEM, supplemented with 10% FBS and antibiotics in the CO2 incubator.
Glioblastoma (U-87MG) cells were treated with increasing concentrations of CA, temozolomide, etoposide or their combination for 72 hours in 96-well plates. MTT [3-(4,5-Dimethyl thiazol-2-yl)-2,5-diphenyltetrazolium bromide] assay performed with the Cell Proliferation Kit I (Roche Biochemicals, IN) was used to analyze cytotoxicity of individual drugs/extracts and their combinations. The experiments were repeated four times with three replications for each treatment and the IC50, IC75 and IC90 values were calculated (Ramachandran et al. 2010; Ramachandran et al. 2012). The relative cytotoxicity of CA in normal mouse hypothalamus cell line (mHypoE-N1) was also analyzed to compare the toxicity and specificity of CA in normal and brain tumor cells.
Mean inhibitory concentrations (ICs) and standard deviation estimates were calculated using Microsoft Excel software using data from three separate experiments. The fraction of surviving cells at each concentration of drugs/combinations was used for the analysis of synergism/additiveness/antagonism between drugs/extracts by the CompuSyn software (ComboSyn, Inc., Paramus, N.J.).

RD cell line = assay: RT-PCR gene expression, RD; assay type: cell-based, human; conditions: 72 h
Description: (§1) FIGS. 20A-20B: Gene expression analysis of apoptotic genes (p53, Bcl-2, Bax and Bak) by RT-PCR in eRMS RD (FIG. 20A) and aRMS SJRH30 (FIG. 20B) cells treated with VBL, CP, CA and their combinations. Total RNA was extracted from cells treated with drugs and their combinations for 72 h and RT-PCR assay performed with 5 μg of RNA using gene specific primers. The house keeping gene GAPDH is also amplified as control.
(§2) mRNA expression of apoptosis-associated genes (Bax, Bcl-2, Bak and p53) and inflammation-associated genes (Cox-2, NF-κB and STATS) were analyzed by reverse transcriptase-polymerase chain reaction (Ramachandran et al. 2012). The expression of a house keeping gene, Glyceraldehyde 3-phosphate dehydrogenase (GAPDH) was used as a control. The relative expression of genes was quantified using gel pictures by the UNSCAN-IT GEL′ software (Silk Scientific, Inc., Orem, Utah). Since the ratios of Bax/Bcl-2, Bak/Bcl-2 and Bax/Bak expression were very much associated with the fate of cells undergoing apoptosis, these estimates were calculated and plotted against drug concentrations (Ramachandran et al. 2012).

SJRH30 cell line = assay: RT-PCR gene expression, SJRH30; assay type: cell-based, human; conditions: SJRH30, 72 h
Description: as §1, §2

[2] = system: aRMS (SJRH30) nude mice xenografts; assay: Rhabdomyosarcoma xenograft study; assay type: in vivo
Description: Male athymic nude (nu/nu) mice of the NCrNUstrain (4 weeks old weighing 18-22 g) were purchased from Taconic Labs, German Town, N.Y. Tissue cultured SJRH30 aRMS cells (10^7 cells/site) in 0.1 ml of Hank's balanced salt solution were injected subcutaneously into the left and right flank of the nude mice with a 21-guage needle. When the tumors measured 0.5 cm^3, therapy was started with 20 mice in each group. Treatment groups included control (saline), 2 mg/kg VBL, 10 mg/kg CA and 2 mg/kg VBL+10 mg/kg CA. VBL was dissolved in saline and administered intraperitoneally on alternate days for a total of 10 injections starting on the first day of tumor measurement and treatment. CA was initially dissolved in ethanol and diluted in water so as to make 0.1% alcohol in it and given as drinking water for the entire duration of the study. Tumor size (length×width), body weight and survival data were collected twice a week. Tumor measurements were recorded using a vernier caliper and tumor volume and tumor growth rates were calculated according to the formula described earlier (Ramachandran et al. 2003; 2006). Tumor growth rate data was analyzed by one-way analysis of variance (ANOVA) with Dunnett's multiple comparison test. Survival data was analyzed with Kaplan Meier statistics using Graphpad Prism software and significant differences among treatment groups were calculated.

[3] = system: embryonal (RD) rhabdomyosarcoma cell line; assay: MTT cytotoxicity in embryonal rhabdomyosarcoma cells; assay type: cell-based, human; conditions: for IC50 / IC90: Homo sapiens, Rhabdomyosarcoma cell
Description: (§3) Both aRMS (SJRH30) and eRMS (RD) cell lines were purchased from American Type Culture Collection, Manassas, Va. SJRH30 and RD cells were grown in Rosewell Park Memorial Institute 1640 (RPMI 1640) and Dulbecco's Modified Eagle's medium (DMEM), respectively, supplemented with 10% FBS and antibiotics in a 5% CO2 incubator.
(§4) Rhabdomyosarcoma cells were treated with increasing concentrations of drugs and/or extracts for 72 hours in 96-well plates. MTT assay performed with the Cell Proliferation kit I (Roche Biochemicals, IN) was used to analyze cytotoxicity of individual drugs, extracts and their combinations (Ramachandran et al. 2012).
(§5) Mean inhibitory concentrations (ICs) and standard deviation estimates were calculated using Microsoft Excel software. The fraction of surviving cells at each concentration of drugs/combinations was used for the analysis of synergism/additiveness/antagonism between drugs/extracts by the CompuSyn software (ComboSyn, Inc., Paramus, N.J.). Synergism was evaluated by the Combination Index (CI) method of Chou and Talalay (1983) which is based on the median-effect principle. The CIs were calculated by the Chou-Talalay equations for multiple drug effects which take into account both potency (IC values) and shape (slope, m) of dose-effect curve (Ramachandran et al. 2010).

[4] = system: alveolar (SJRH30) rhabdomyosarcoma cell line; assay: MTT cytotoxicity in alveolar rhabdomyosarcoma cells; assay type: cell-based, human; conditions: for IC50 / IC90: Homo sapiens
Description: as §3, §4, §5

[5] = system: U-87MG nude mice xenografts; assay: Glioblastoma xenograft study; assay type: in vivo; conditions: vs olive oil control; IR 50 mg/kg intraperitoneally, CA (50/mg) gavage; p<0.05
Description: FIG. 16: Inhibition of tumor growth rate in U-87MG xenografts treated with olive oil (control), irinotecan (IR), CA, and IR+CA in combination. Xenografts (n=15/group) were administered intraperitoneally with olive oil (control) or IR (50 mg/kg), whereas CA (50/mg) was given gavage (introduction directly to the stomach). Tumor measurements are recorded twice per week and mean±SD estimates of tumor growth rate are plotted against days after treatment (*p<0.05; **p<0.01, ***p<0.001 as compared to control).
FIG. 17: Kaplan-Meier survival curve analysis of glioblastoma (U-87MG) nude mice xenografts treated with olive oil control, IR, CA, and IR+CA. The difference between treatment groups are significant (*p<0.05).

Compound	IC75 [1]	IC50 ([1]; Homo sapiens)	IC90 ([1]; Homo sapiens, read-out: IC90)	expression of Bcl-2 (RD cell line)	expression of p53, Bax and Bak (RD cell line)	expression of Bcl-2 (SJRH30 cell line)	expression of p53, Bax and Bak (SJRH30 cell line)	IC75 ([3]; RD, 72 hours, MTT)	IC75 ([4]; SJRH30, 72 hours, MTT)	also measured
Cn1nnc2c(C(N)=O)ncn2c1=O [TMZ, temozolomide]	>200 mg/L	176 ± 10.5 mg/L	> 200 mg/L	–	–	–	–	–	–	–
COc1cc(/C=C/C(=O)CC(=O)/C=C/c2ccc(O)c(OC)c2)ccc1O [CUR, curcumin]	51.00 ± 7.07 mg/L	37.3 ± 4.04 mg/L	> 200 mg/L	–	–	–	–	–	–	IC90 [1]: >200 mg/L; IC75 ([1]; listed as curcumin): 51.00 ± 7.07 mg/L
CC[C@]1(O)C[C@@H]2CN(CCc3c([nH]c4ccccc34)[C@@](C(=O)OC)(c3cc4c(cc3OC)N(C)[C@H]3[C@@](O)(C(=O)OC)[C@H](OC(C)=O)[C@]5(CC)C=CCN6CC[C@]43[C@@H]65)C2)C1 [Vinblastine (VBL), Vinblastine]	–	–	–	decrease	increase	decrease	increase	0.200 ± 0.010 mg/L	36.110 ± 2.970 mg/L	weight gain of xenografts / overall weight loss ([2]; mouse, in vivo): absence of any overall weight loss; tumor growth rate ([2]; vs saline control, VBL 2 mg/kg intraperitoneally, CA 10 mg/kg in drinking water, p<0.001 by ANOVA): significantly inhibited; IC50 ([3]; RD, 72 hours, MTT, read-out: IC50): 0.01 ± 0.002 mg/L; IC90 ([3]; RD, 72 hours, MTT, read-out: IC90): > 200 mg/L; IC50 ([4]; SJRH30, 72 hours, MTT, read-out: IC50): 0.191 ± 0.01 mg/L; IC90 ([4]; SJRH30, 72 hours, MTT, read-out: IC90): > 200 mg/L
COc1cc([C@@H]2c3cc4c(cc3[C@@H](O[C@@H]3O[C@@H]5CO[C@@H](C)O[C@H]5[C@H](O)[C@H]3O)[C@H]3COC(=O)[C@H]23)OCO4)cc(OC)c1O [ETP, etoposide]	127.50 ± 3.53 mg/L	6.5 ± 2.54 mg/L	> 200 mg/L	–	–	–	–	–	–	–
CCc1c2c(nc3ccc(OC(=O)N4CCC(N5CCCCC5)CC4)cc13)-c1cc3c(c(=O)n1C2)COC(=O)[C@]3(O)CC [IR, irinotecan]	–	–	–	–	–	–	–	–	–	tumor growth rate [5]: significantly inhibited
O=P1(N(CCCl)CCCl)NCCCO1 (centres unmarked) [Cyclophosphamide (CP), Cyclophosphamide]	–	–	–	decrease	increase	decrease	increase	>200 mg/L	>200 mg/L	IC50 ([3]; 72 h): 172 ± 8.53 mg/L; IC90 ([3]; 72 h): > 200 mg/L; cell death ([4]; 200 μg/ml dose, aRMS cells): 45%; IC50 ([4]; SJRH30, 72 h): > 200 mg/L; IC90 ([4]; SJRH30, 72 h): > 200 mg/L
